Values quoted from earlier work in patent US20150038447A1, “ORGAN PROTECTION, PRESERVATION AND RECOVERY” (Hibernation Therapeutics, A KF LLC, priority 2007, published 2015).
pKi: −log10 of the molar value.

Assays:
[1] = 400 mg daily tablets
adenosine deaminase = target: T1, adenosine deaminase (Bos taurus, UniProt P56658); details: calf intestinal mucosa; read-out: Ki (competitive inhibitor of adenosine deaminase)
T1 construct: from tissue; host or cells: calf intestinal mucosa

[2] = given orally and/or intravenous at 10, 25, 50, and 100 mg/kg body weight
human NK(1) receptor = human NK(1) receptor (Homo sapiens, UniProt P25103)
Sequence of human NK(1) receptor (P25103 whole entry): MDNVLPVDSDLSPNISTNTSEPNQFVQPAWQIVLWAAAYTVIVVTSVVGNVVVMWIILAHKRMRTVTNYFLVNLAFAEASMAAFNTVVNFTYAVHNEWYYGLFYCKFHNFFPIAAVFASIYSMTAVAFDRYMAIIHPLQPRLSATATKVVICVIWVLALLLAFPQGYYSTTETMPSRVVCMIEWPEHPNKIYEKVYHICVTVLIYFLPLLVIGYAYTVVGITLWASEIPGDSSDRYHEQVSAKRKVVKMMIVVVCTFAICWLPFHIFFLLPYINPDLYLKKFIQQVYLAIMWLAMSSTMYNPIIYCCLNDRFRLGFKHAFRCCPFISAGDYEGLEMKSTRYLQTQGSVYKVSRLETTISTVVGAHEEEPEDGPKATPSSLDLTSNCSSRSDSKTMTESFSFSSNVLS

NK(2) receptor = target: T2, NK(2) receptor (Homo sapiens, UniProt P21452); details: NK(1) versus NK(2)
T2 sequence (P21452 1-398): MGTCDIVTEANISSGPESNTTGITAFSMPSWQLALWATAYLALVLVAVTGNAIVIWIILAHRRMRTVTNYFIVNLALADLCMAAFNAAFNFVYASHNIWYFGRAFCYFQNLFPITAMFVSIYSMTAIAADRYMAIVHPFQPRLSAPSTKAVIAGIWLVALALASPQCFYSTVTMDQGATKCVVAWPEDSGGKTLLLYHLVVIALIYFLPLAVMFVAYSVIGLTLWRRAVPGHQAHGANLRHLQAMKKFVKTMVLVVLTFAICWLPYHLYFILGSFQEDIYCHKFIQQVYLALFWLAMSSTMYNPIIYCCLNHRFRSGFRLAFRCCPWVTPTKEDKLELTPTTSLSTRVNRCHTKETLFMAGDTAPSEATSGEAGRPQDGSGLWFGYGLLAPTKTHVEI

NK(3) receptor = target: T3, NK(3) receptor (Homo sapiens, UniProt P29371); details: NK(1) versus NK(3)
T3 sequence (P29371 1-465): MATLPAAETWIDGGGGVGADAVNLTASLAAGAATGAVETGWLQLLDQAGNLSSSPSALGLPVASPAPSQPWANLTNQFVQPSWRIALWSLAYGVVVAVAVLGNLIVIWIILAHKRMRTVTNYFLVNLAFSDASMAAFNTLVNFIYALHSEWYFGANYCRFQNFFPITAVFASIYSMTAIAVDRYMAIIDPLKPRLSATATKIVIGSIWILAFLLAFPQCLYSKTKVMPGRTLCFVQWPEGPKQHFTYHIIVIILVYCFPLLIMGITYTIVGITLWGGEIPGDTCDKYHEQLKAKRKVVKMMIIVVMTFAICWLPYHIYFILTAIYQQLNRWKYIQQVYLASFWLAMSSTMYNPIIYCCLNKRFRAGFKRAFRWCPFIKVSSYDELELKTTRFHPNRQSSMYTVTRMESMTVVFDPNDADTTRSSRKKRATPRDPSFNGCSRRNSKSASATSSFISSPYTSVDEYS

anaesthetised rats = details: previous studies (Canyon and Dobson, 2004)
[3] = in vivo

T1 sequence (P56658 whole entry): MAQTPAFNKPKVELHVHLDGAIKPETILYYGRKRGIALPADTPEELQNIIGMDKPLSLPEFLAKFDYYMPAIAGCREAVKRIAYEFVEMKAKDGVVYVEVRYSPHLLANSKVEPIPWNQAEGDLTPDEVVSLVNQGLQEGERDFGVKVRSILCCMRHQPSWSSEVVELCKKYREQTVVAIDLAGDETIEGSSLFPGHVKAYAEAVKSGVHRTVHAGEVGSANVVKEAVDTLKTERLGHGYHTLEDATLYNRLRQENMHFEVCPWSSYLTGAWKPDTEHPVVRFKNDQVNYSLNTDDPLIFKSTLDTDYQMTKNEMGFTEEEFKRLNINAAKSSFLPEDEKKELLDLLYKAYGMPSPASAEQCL

**Q.** For `OCCN(CCO)c1nc(N2CCCCC2)c2nc(N(CCO)CCO)nc(N3CCCCC3)c2n1` [Dipyridamole], which plasma level [1] is on record?
**A.** The plasma level was “about 0.4 μg/ml”.

**Q.** And the “plasma level (concentration)” value [1]?
**A.** The value was roughly 0.8 µM.

**Q.** With `NC(=O)c1ncn([C@@H]2O[C@H](CO)[C@@H](O)[C@H]2O)c1N` [Acadesine, 5-amino-4-imidazole carboxamide ribonucleoside] as the molecule, how does the pKi (adenosine deaminase) read?
**A.** The pKi was 3.44.

**Q.** What about the safety in humans [2] of the same molecule?
**A.** Its safety in humans is “safe”.

**Q.** With `Cc1cccc(C)c1NC(=O)C[C@H]1CCN(C(=O)c2cc(C(F)(F)F)cc(C(F)(F)F)c2)[C@@H](Cc2ccccc2)C1.O=C(O)C[C@H](O)C(=O)O` (relative stereo) [R116301, (2R-trans)-4-[1-[3,5-bis(trifluoromethyl)benzoyl]-2-(phenylmethyl)-4-piperidinyl]-N-(2,6-dimethylphenyl)-1-acetamide (S)-Hydroxybutanedioate] as the molecule, how does the pKi (human NK(1) receptor) read?
**A.** Its pKi is 9.35.

**Q.** What about the “selectivity toward NK(2) receptor” value (NK(2) receptor) of the same molecule?
**A.** Its value is “over 200 fold”.

**Q.** And the “selectivity toward NK(3) receptor” value (NK(3) receptor)?
**A.** Its value is “over 200 fold”.

**Q.** What does the source list for `Nc1ncnc2c1ncn2[C@@H]1O[C@H](CO)[C@@H](O)[C@H]1O` [adenosine]?
**A.** half life in the blood: about 10 seconds; animals that die during 30 min ischaemia from VF (anaesthetised rats): about 50%

**Q.** Which “potency as an analgesic relative to morphine” value [3] does the source give for `CSCC[C@@H]1NC(=O)[C@H](CC(C)C)NC(=O)[C@H](CCCNC(=N)N)NC(=O)[C@H](CO)NC(=O)[C@@H]2CSSC[C@@H]3NC(=O)[C@H](CO)NC(=O)CNC(=O)[C@H]([C@@H](C)O)NC(=O)[C@H](CSSC[C@H](N)C(=O)N[C@@H](CCCCN)C(=O)NCC(=O)N[C@@H](CCCCN)C(=O)NCC(=O)N[C@@H](C)C(=O)N[C@@H](CCCCN)C(=O)N2)NC(=O)[C@H](CSSC[C@@H](C(N)=O)NC(=O)[C@H](CCCCN)NC(=O)CNC(=O)[C@H](CO)NC(=O)[C@H](CCCNC(=N)N)NC3=O)NC(=O)[C@H](CC(=O)O)NC(=O)[C@H](Cc2ccc(O)cc2)NC1=O` [Omega conotoxin MVIIA] here?
**A.** The value was 100-1000 fold.
